Measurements taken from patent publication US10815237B2, “Antimicrobials and methods of making and using same” (BIOVERSYS AG, priority 2016, dated 2020).

Assays:
[1] = system: Chinese hamster ovary (CHO) cells; test: cytotoxicity against CHO cell line (Cell Titer Blue); assay type: cell-based; conditions: CHO-K1 cells, 24 hours incubation, percent cell kill
Protocol: The compounds of the present disclosure were tested for cytotoxicity against Chinese hamster ovary (CHO) cells.
The assay was performed by seeding CHO—K1 in F12K medium containing 13.33% Fetal Bovine Serum […]. 37.5 μl of cell suspension at a concentration of 9,500 cells/well was plated into each column of a 384-well black clear bottom assay plate with the exception of a negative (no cell) control column, and allowed to adhere for 2 hours. The culture media was then removed from the 175 cm^2 flask(s) and the cell monolayer washed with 10 mL of Phosphate Buffered Saline PBS. 3 mL of Cellstripper™ was then added and the flask was incubated for approximately 5 min at 37° C. The cells were dissociated by agitation and 7 mL of F 12K medium containing 10% FBS was added to the flask. A homogeneous cell suspension was obtained by trituration of the flask. The cells were counted with a hemocytometer by diluting an aliquot of the cell suspension in PBS with 0.4% trypan blue. Typically, a ratio of 100 μl cell suspension to 1800 μl PBS to 100 μl trypan blue was used.
The volume of cell suspension containing the number of cells needed to seed the plate(s) (15.2 mL containing 3.8×10^6 cells) was calculated and transferred to a 50 mL centrifuge tube with the appropriate volume of media. 37.5 μl of cells were added to each well of the 384 well plate except for the negative (no cell) control column. A cytotoxicity 100-fold dilution plate was then prepared by manually pipetting 18 μl of 100% DMSO into two columns of an empty low volume dilution plate. 2 μl of a 50 mM solution of compounds 1-23 from the translation plate were manually pipetted into the corresponding columns of the 100-fold dilution plate. 10 μl of 100% DMSO was manually pipetted into all remaining columns of the 100-fold plate.
A 4-fold cytotoxicity plate was prepared beforehand by manually pipetting 48 μl of F12K media (without DMSO and without FBS) into each well of a matrix 384 well plate. The test samples in the 100-fold dilution plate were mixed and diluted. Ten 2-fold dilutions were performed for each compound in duplicate. The 384 cannula array then transferred 2 μl to the 48 μl of media in the cytotoxicity 4-fold dilution plate. The array was then mixed and 12.5 μl of samples from the cytotoxicity 4-fold dilution plate were transferred to the 37.5 μl of cells and media. The final top concentration of samples at this point in the procedure was 50 μM with 10 subsequent 1:2 dilutions down to […]. The final DMSO concentration were 1% and the final concentration of FBS was 10%.
Cycloheximide was run as a control. Specifically, Cycloheximide was diluted to 0.1 mM from 100 mM stock […] and was added to the cytotoxicity 100-fold plate. Upon addition to the cell plate, a range of 1 μM to 1 nM of cycloheximide was run.
A column separate from the one (referred to above) that served as the negative control was used for cell control wells to which only media was added.
The plates were then incubated for 24 hours at 37° C. and 5% CO2. […] The two columns used earlier to prepare the 100-fold dilution plate by pipetting 18 μl of 100% DMSO contained the samples tested at 200 μM. After the 24 hour incubation period, the 4 μl of Cell Titer blue was added to each well using a Multichannel Matrix pipettor. The plates were returned to the incubator and incubated for an additional 5 hours. Fluorescence (530 nm excitation wavelength/590 nm emission wavelength) was measured on a Wallac Victor microplate reader.
Cell viability was assessed fluorometrically after a 5 hour incubation with resazurin (Cell Titer Blue™), which is reduced by living cells to the fluorescent resorufin.
The average fluorescence for the negative control was determined to obtain the average blank fluorescence. The average blank fluorescence was subtracted from the fluorescence values obtained for all the test agents. The resulting values are the corrected fluorescence. […]

[2] = system: Eschericia coli (E. coli) strain ATCC25922; test: standard microdilution MIC, E. coli; assay type: cell-based, Escherichia coli; conditions: for MIC: Escherichia coli
Protocol: (§1) The in vitro activity of the compounds of the present disclosure can be determined. Antimicrobial testing is typically performed to determine the minimum inhibitory concentration (MIC). Minimum inhibitory concentrations (MICs) are determined by the microdilution method in a final volume of 100 μl according to protocols outlined by The Clinical and Laboratory Standards Institute (CLSI). Performance standards for reference strains are assessed within the same experimental design to maintain quality control. See, for example, Clinical Laboratory Standards Institute: Methods for dilution antimicrobial susceptibility tests for bacteria that grow aerobically M7-A8. Approved Standard-Eighth Edition. Wayne, Pa.: CLSI; December 2008; and Clinical Laboratory Standards Institute: Performance Standards for Antimicrobial Susceptibility Testing M100-S20; Approved Standard-Twentieth Edition. Wayne, Pa.: CLSI; June 2010.
(§2) The compounds of the present disclosure were tested for antimicrobial activity. The Compounds 1-23 were run against Eschericia coli (E. coli) strain ATCC25922 and against Staphylococcus aureus (S. aureus) 11540 strain using a standard microdilution assay to determine minimum inhibitory concentrations (MICs). […] It will be recognized by one skilled in the art that the compounds can be assessed against other bacterial organisms and that the presentation of data for activity against Eschericia coli and Staphylococcus aureus are illustrative and in no way is intended to limit the scope of the present disclosure. The compounds of the present disclosure can be assayed against a range of other microorganisms depending upon the performance activity desired to be gathered. Furthermore, the “+” and “−” representation and the selection of a cutoff value of 16 micrograms/mL is also illustrative and in no way is intended to limit the scope of the present disclosure.

[3] = system: Staphylococcus aureus (S. aureus) 11540 strain; test: standard microdilution MIC, S. aureus; assay type: cell-based; conditions: for MIC: Staphylococcus aureus
Protocol: as §1, §2

MIC [2] [µg/mL] | MIC [3] [µg/mL] | SMILES | IC50 ([1]; Cricetulus griseus, 24 h) [µM] | MIC E.coli [2] | IC50 [1] [µM] | MIC S. aureus [3]
≤ 16 | ≤ 16 | COC[C@H](N)CCCc1cc(OC(F)(F)F)c(F)c(-c2cc3cn(-c4ccc([C@@H]5CCC[C@@H](CCNC(=N)CN)N5)cc4)c(=O)nc3[nH]2)c1 [Compound 11] | > 100 |  |  | 
≤ 16 | ≤ 16 | N=C(CN)NCC[C@@H]1CCC[C@@H](c2ccc(-n3cc4cc(-c5cc(CCC[C@@H](N)C6CC6)cc(Cl)c5F)[nH]c4nc3=O)cc2)N1 [Compound 12] | > 100 |  |  | 
≤ 16 | ≤ 16 | C[C@H](N)CCCc1cc(Cl)c(F)c(-c2cc3cn(-c4ccc([C@@H]5CCC[C@@H](CCNC(=N)CN)N5)c(F)c4)c(=O)nc3[nH]2)c1 [Compound 13] | > 100 |  |  | 
≤ 16 | ≤ 16 | N=C(CN)NCC[C@@H]1CCC[C@@H](c2ccc(-n3cc4cc(-c5cc(CCC[C@@H](N)CO)cc(Cl)c5F)[nH]c4nc3=O)cc2)N1 [Compound 16] | 50.9 |  |  | 
≤ 16 | ≤ 16 | C[C@H](N)CCCc1cc(-c2cc3cn(-c4ccc([C@@H]5CCC[C@@H](CCNC(=N)CN)N5)cc4)c(=O)nc3[nH]2)cc(C(F)(F)F)c1 [Compound 17] | > 100 |  |  | 
≤ 16 | ≤ 16 | CN=C(CN)NCC[C@@H]1CCC[C@@H](c2ccc(-n3cc4cc(-c5cc(CCC[C@H](C)N)cc(Cl)c5F)[nH]c4nc3=O)cc2)N1 [Compound 18] | > 100 |  |  | 
≤ 16 | ≤ 16 | CSC[C@H](N)CCCc1cc(Cl)c(F)c(-c2cc3cn(-c4ccc([C@@H]5CCC[C@@H](CCNC(=N)CN)N5)cc4)c(=O)nc3[nH]2)c1 [Compound 19] | > 100 |  |  | 
≤ 16 | ≤ 16 | C[C@H](N)CCCc1cc(-c2cc3cn(-c4ccc([C@@H]5CCC[C@@H](CCNC(=N)CN)N5)cc4)c(=O)nc3[nH]2)ccc1C(F)(F)F [Compound 21] | > 100 |  |  | 
≤ 16 | ≤ 16 | CSc1cc(-n2cc3cc(-c4cc(CCC[C@H](C)N)cc(C(F)(F)F)c4)[nH]c3nc2=O)ccc1[C@@H]1CCC[C@@H](CCNC(=N)CN)N1CCCF [Compound 22] | > 100 |  |  | 
≤ 16 | ≤ 16 | C[C@H](N)CCCc1cc(-c2cc3cn(-c4ccc([C@@H]5CCC[C@@H](CCNC(=N)CN)N5CCCF)cc4)c(=O)nc3[nH]2)cc(C(F)(F)F)c1 [Compound 23] | > 100 |  |  | 
≤ 16 | ≤ 16 | N=C(CN)NCC[C@@H]1CCC[C@@H](c2ccc(-n3cc4cc(-c5cc(CCC[C@@H](N)C6CC6)cc(C(F)(F)F)c5)[nH]c4nc3=O)cc2)N1CCCF [Compound 42] | > 100 |  |  | 
≤ 16 | ≤ 16 | C[C@H](N)CCCc1cc(-c2cc3cn(-c4ccc([C@@H]5CCC[C@@H](CCNC(=N)CN)N5CCCF)c(F)c4)c(=O)nc3[nH]2)cc(C(F)(F)F)c1 [Compound 44] | > 100 |  |  | 

Further lines, the compound ahead of its results:

SMILES | MIC [2] [µg/mL] | MIC [3] [µg/mL] | IC50 ([1]; Cricetulus griseus, 24 h) [µM] | MIC E.coli [2] | IC50 [1] [µM] | MIC S. aureus [3]
C=C[C@@H](CCNC(=N)CN1CCOCC1)NCc1ccc(-n2cc3cc(-c4cc(CCC[C@H](C)N)cc(Cl)c4F)[nH]c3nc2=O)cc1 [Compound 1] |  |  | > 100 |  |  | 
C=C[C@H](CCNC(=N)CN1CCSCC1)NCc1ccc(-n2cc3cc(-c4cc(CCC[C@H](C)N)cc(Cl)c4F)[nH]c3nc2=O)cc1 [Compound 3] | ≤ 16 | ≤ 16 | > 100 |  |  | 
C[C@H](N)CCCc1cc(Cl)c(F)c(-c2cc3cn(-c4ccc(CN[C@@H](CO)CCNC(=N)CN5CCSCC5)cc4)c(=O)nc3[nH]2)c1 [Compound 4] | ≤ 16 | ≤ 16 | > 100 |  |  | 
C=C[C@@H](CCNC(=N)CN1CC[C@H](F)C1)NCc1ccc(-n2cc3cc(-c4cc(CCC[C@H](C)N)cc(Cl)c4F)[nH]c3nc2=O)cc1 [Compound 5] | ≤ 16 | ≤ 16 | > 100 |  |  | 
C=C[C@@H](CCNC(=N)CN1CCOCC1)NCc1ccc(-n2cc3cc(-c4cc(CCC[C@H](C)N)cc(Cl)c4F)[nH]c3nc2=O)cc1 [Compound 6] | ≤ 16 | ≤ 16 |  |  |  | 
C=C[C@@H](CCNC(=N)CN1CCSCC1)NCc1ccc(-n2cc3cc(-c4cc(CCC[C@H](C)N)cc(Cl)c4F)[nH]c3nc2=O)cc1 [Compound 7] | ≤ 16 | ≤ 16 | > 100 |  |  | 
C[C@H](N)CCCc1cc(Cl)c(F)c(-c2cc3cn(-c4ccc([C@H](C)NCCCNC(=N)CN)cc4)c(=O)nc3[nH]2)c1 [Compound 9] | ≤ 16 | ≤ 16 | > 100 |  |  | 
CSc1cc(-n2cc3cc(-c4cc(CCC[C@H](C)N)cc(Cl)c4F)[nH]c3nc2=O)ccc1[C@@H]1CCC[C@@H](CCNC(=N)CN)N1 [Compound 10] | ≤ 16 | ≤ 16 | > 100 |  |  | 
C[C@H](N)CCCc1cc(Cl)c(F)c(-c2cc3cn(-c4ccc([C@@H]5CCC[C@@H](CCNC(=N)CN)N5)cc4)c(=O)nc3[nH]2)c1 [Compound 14] |  |  |  | + (the compound has an MIC value of 16 micrograms/mL or less) | > 100 | + (the compound has an MIC value of 16 micrograms/mL or less)
C[C@H](N)CCCc1cc(Cl)c(F)c(-c2cc3cn(-c4cc(F)c([C@@H]5CCC[C@@H](CCNC(=N)CN)N5)c(F)c4)c(=O)nc3[nH]2)c1 [Compound 15] | ≤ 16 | ≤ 16 | > 100 |  |  | 
C[C@H](N)CCCc1cc(Cl)c(F)c(-c2cc3cn(-c4ccc([C@@H]5CCC[C@@H](CCNC(=N)CN)N5CCCF)cc4)c(=O)nc3[nH]2)c1 [Compound 20] | ≤ 16 | ≤ 16 | > 100 |  |  | 
N=C(CN)NCC[C@@H]1CCC[C@@H](c2ccc(-n3cc4cc(-c5cc(CCC[C@@H](N)C6CC6)cc(C(F)(F)F)c5)[nH]c4nc3=O)cc2F)N1CCCF [Compound 43] | ≤ 16 | ≤ 16 | > 100 |  |  | 
N=C(CN)NCC[C@@H]1CCC[C@@H](c2ccc(-n3cc4cc(-c5cc(CCC[C@@H](N)C6CC6)cc(Cl)c5F)[nH]c4nc3=O)cc2)N1CCCF [Compound 45] | ≤ 16 | ≤ 16 | > 100 |  |  | 
C[C@H](N)CCCc1cc(Cl)c(F)c(-c2cc3cn(-c4ccc([C@@H]5CCC[C@@H](CCNC(=N)CN)N5CCCF)c(F)c4)c(=O)nc3[nH]2)c1 [Compound 46] | ≤ 16 | ≤ 16 | > 100 |  |  | 
N=C(CN)NCC[C@@H]1CCC[C@@H](c2ccc(-n3cc4cc(-c5cc(CCC[C@@H](N)C6CC6)cc(Cl)c5F)[nH]c4nc3=O)cc2F)N1CCCF [Compound 47] | ≤ 16 | ≤ 16 | 50.5 |  |  | 
